Data taken from patent US8946439B2, “Amide compounds, compositions and uses thereof” (Evotec AG, priority 2008, dated 2015).

Assays:
hP2X2/3H = target: T1, hP2X2/3H (Homo sapiens, UniProt P56373+Q9UBL9); test: Calcium uptake assay (P2X antagonist assay), P2X2/3 heteromer; format: cell-based; details: calcium uptake assay, hP2X2/3H; read-out: IC50 hP2X2/3H (nM), Ca Influx
T1 construct: expressed in transfected cells; host or cells: e.g. HEK293 or 1321N1
T1 sequence (Q9UBL9 1-471): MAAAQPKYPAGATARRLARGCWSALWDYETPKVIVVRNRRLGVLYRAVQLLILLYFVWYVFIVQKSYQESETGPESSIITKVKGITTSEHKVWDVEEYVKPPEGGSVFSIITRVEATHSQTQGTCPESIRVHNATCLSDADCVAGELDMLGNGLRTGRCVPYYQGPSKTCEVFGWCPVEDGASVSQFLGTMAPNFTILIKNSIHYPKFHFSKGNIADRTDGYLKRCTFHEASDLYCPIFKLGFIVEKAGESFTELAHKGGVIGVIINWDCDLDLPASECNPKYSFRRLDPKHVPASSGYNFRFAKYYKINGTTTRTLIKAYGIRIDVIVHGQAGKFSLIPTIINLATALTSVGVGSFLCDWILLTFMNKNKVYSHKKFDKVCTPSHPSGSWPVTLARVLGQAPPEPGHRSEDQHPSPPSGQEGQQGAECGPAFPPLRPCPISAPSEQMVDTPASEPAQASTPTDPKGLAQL
T1 sequence (P56373 1-397): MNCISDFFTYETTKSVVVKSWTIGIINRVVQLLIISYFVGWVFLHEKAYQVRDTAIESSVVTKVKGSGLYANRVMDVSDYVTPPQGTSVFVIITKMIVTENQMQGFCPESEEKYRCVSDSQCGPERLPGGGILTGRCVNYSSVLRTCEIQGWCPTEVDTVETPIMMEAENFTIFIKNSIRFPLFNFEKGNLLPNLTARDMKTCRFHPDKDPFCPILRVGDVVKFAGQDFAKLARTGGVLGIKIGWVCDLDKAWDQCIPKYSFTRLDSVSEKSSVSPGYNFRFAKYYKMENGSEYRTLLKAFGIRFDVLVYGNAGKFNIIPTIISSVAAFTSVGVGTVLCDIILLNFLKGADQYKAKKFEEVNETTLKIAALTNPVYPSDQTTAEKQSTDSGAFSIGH
In short: (§1)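 Stably or transiently transfected HEK293 or 1321N1 cells; the heteromer is made by adding P2X3 to a P2X2-stable line, with heteromer function isolated pharmacologically. The peak-minus-baseline FLIPR calcium signal gives % inhibition and a 4-parameter-logistic IC50.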

hP2X3 = target: T2, hP2X3 (Homo sapiens, UniProt P56373); test: Calcium uptake assay (P2X antagonist assay), P2X3 homomer; format: cell-based; details: calcium uptake assay, hP2X3; read-out: IC50 hP2X3 (nM), Ca Influx
T2 construct: expressed in transfected cells; host or cells: e.g. HEK293 or 1321N1
T2 sequence (P56373 1-397): T1 sequence (P56373 1-397)
In short: as §1

Cc1ccc(-c2cc(C(=O)NCc3ccc4c(c3)OCO4)cc(C(=O)N3CCCC3)c2)cc1 [Compound 98]
IC50 (hP2X2/3H): 100 to 500 nM
IC50 (hP2X3): 100 to 500 nM

Cc1ncc(CNC(=O)c2cc(C(=O)N3CCCC3)cc(-c3ccc(F)cn3)c2)cn1 [Compound 99]
IC50 (hP2X2/3H): > 1000 nM
IC50 (hP2X3): > 1000 nM

Cc1ccc(-c2cc(C(=O)NCc3ccc(C)nc3)cc(C(=O)N3CC[C@@H](NC(=O)OC(C)(C)C)C3)c2)cc1 [Compound 100]
IC50 (hP2X2/3H): 100 to 500 nM
IC50 (hP2X3): 501 to 1000 nM

Cc1ccc(-c2cc(C(=O)NCc3ccc(C)nc3)cc(C(=O)N3CC[C@@H](N)C3)c2)cc1 [Compound 101]
IC50 (hP2X2/3H): 501 to 1000 nM
IC50 (hP2X3): 100 to 500 nM

Cc1ccc(-c2cc(C(=O)NCc3ccc(Cl)c(-n4cnnc4)c3)cc(C(=O)N3CCCC3)c2)cc1 [Compound 102]
IC50 (hP2X2/3H): < 100 nM
IC50 (hP2X3): < 100 nM

Cc1ccc(-c2cc(C(=O)NC(C)c3ccc(C)nc3)cc(C(=O)N3CCCC3)c2)cc1 (stereo not drawn) [Compound 103]
IC50 (hP2X2/3H): < 100 nM
IC50 (hP2X3): < 100 nM

Cc1ccc(-c2cc(C(=O)N[C@H](C)c3cnc(C)c(Cl)c3)cc(C(=O)N3CCCC3)c2)cc1 [Compound 104]
IC50 (hP2X2/3H): 100 to 500 nM
IC50 (hP2X3): < 100 nM

Cc1ccc(-c2cc(C(=O)NCc3ccc(C)nc3)cc(S(=O)(=O)N3CCCC3)c2)cc1 [Compound 105]
IC50 (hP2X2/3H): < 100 nM
IC50 (hP2X3): < 100 nM

Cc1ccc(-c2cc(C(=O)NCc3ccc(C)nc3)cc(S(=O)(=O)N3CCCC3)c2)nc1 [Compound 106]
IC50 (hP2X2/3H): < 100 nM
IC50 (hP2X3): < 100 nM

Cc1ccc(-c2cc(C(=O)N[C@H](C)c3cnn(C)c3C(F)(F)F)cc(C(=O)N3CCCC3)c2)cc1 [Compound 107]
IC50 (hP2X2/3H): 501 to 1000 nM
IC50 (hP2X3): 100 to 500 nM

Cc1ccc(-c2cc(C(=O)N[C@H](C)c3cnn(C)c3Cl)cc(C(=O)N3CCCC3)c2)cc1 [Compound 108, (R)—N-(1-(5-Chloro-1-methyl-1H-pyrazol-4-yl)ethyl)-4′-methyl-5-(pyrrolidine-1-carbonyl)biphenyl-3-carboxamide]
IC50 (hP2X2/3H): < 100 nM
IC50 (hP2X3): < 100 nM

Cc1ccc(-c2cc(C(=O)N[C@H](C)c3cnn(C)c3C)cc(C(=O)N3CCCC3)c2)cc1 [Compound 109]
IC50 (hP2X2/3H): 501 to 1000 nM
IC50 (hP2X3): 100 to 500 nM

Cc1ccc(-c2cc(C(=O)N[C@H](C)c3cnn4c3COCC4)cc(C(=O)N3CCCC3)c2)cc1 [Compound 110]
IC50 (hP2X2/3H): > 1000 nM
IC50 (hP2X3): 100 to 500 nM

Cc1ccc(-c2cc(C(=O)NC(C)c3csc(C)n3)cc(C(=O)N3CCCC3)c2)cc1 (stereo not drawn) [Compound 111, 4′-Methyl-N-(1-(2-methylthiazol-4-yl)ethyl)-5-(pyrrolidine-1-carbonyl)biphenyl-3-carboxamide]
IC50 (hP2X2/3H): 100 to 500 nM
IC50 (hP2X3): < 100 nM

Cc1ccc(CNC(=O)c2cc(-c3ccc(Cl)c(Cl)c3)cc(S(C)(=O)=O)c2)cn1 [Compound 112]
IC50 (hP2X2/3H): > 1000 nM
IC50 (hP2X3): > 1000 nM

Cc1ccc(-c2cc(C(=O)NCc3ccc(C)nc3)cc(S(C)(=O)=O)c2)nc1 [Compound 113, 3-(5-Methylpyridin-2-yl)-N-((6-methylpyridin-3-yl)methyl)-5-(methylsulfonyl)benzamide]
IC50 (hP2X2/3H): 100 to 500 nM
IC50 (hP2X3): < 100 nM

COc1ncc([C@@H](C)NC(=O)c2cc(-c3ccc(C)cc3)cc(S(C)(=O)=O)c2)cn1 [Compound 114]
IC50 (hP2X2/3H): 100 to 500 nM
IC50 (hP2X3): < 100 nM

COc1ncc(CNC(=O)c2cc(-c3ccc(C)cc3)cc(S(C)(=O)=O)c2)cn1 [Compound 115]
IC50 (hP2X2/3H): 100 to 500 nM
IC50 (hP2X3): < 100 nM

Cc1ccc(-c2cc(C(=O)N[C@H](C)c3cnc(C)nc3)cc(S(C)(=O)=O)c2)cc1 [Compound 116, (R)-4′-Methyl-N-(1-(2-methylpyrimidin-5-yl)ethyl)-5-(methylsulfonyl)biphenyl-3-carboxamide]
IC50 (hP2X2/3H): < 100 nM
IC50 (hP2X3): < 100 nM

Cc1ccc(-c2cc(C(=O)N[C@H](C)c3cnn(CC(F)(F)F)c3C)cc(C(=O)N3CCCC3)c2)cc1 [Compound 117]
IC50 (hP2X2/3H): > 1000 nM
IC50 (hP2X3): 501 to 1000 nM

Cc1ccc(-c2cc(C(=O)NC(C)c3ccc(C)nc3)cc(C(=O)N3CCCC3)c2)nc1 (stereo not drawn) [Compound 118]
IC50 (hP2X2/3H): < 100 nM
IC50 (hP2X3): < 100 nM

Cc1ccc(CNC(=O)c2cc(-c3ccc(Cl)c(C)c3)cc(S(C)(=O)=O)c2)cn1 [Compound 119]
IC50 (hP2X2/3H): > 1000 nM
IC50 (hP2X3): > 1000 nM

Cc1ccc(CNC(=O)c2cc(-c3ccc(C)c(Cl)c3)cc(S(C)(=O)=O)c2)cn1 [Compound 120]
IC50 (hP2X2/3H): > 1000 nM
IC50 (hP2X3): > 1000 nM

Cc1ccc(CNC(=O)c2cc(-c3ccc(C)c(C)c3)cc(S(C)(=O)=O)c2)cn1 [Compound 121]
IC50 (hP2X2/3H): > 1000 nM
IC50 (hP2X3): > 1000 nM

Cc1ccc(-c2cc(C(=O)NCc3ccc(C)nc3)cc(C(=O)N3CCCC3)c2)nc1 [Compound 122, 3-(5-Methylpyridin-2-yl)-N-((6-methylpyridin-3-yl)methyl)-5-(pyrrolidine-1-carbonyl)benzamide]
IC50 (hP2X2/3H): < 100 nM
IC50 (hP2X3): < 100 nM

Cc1ccc(-c2cc(C(=O)NCc3ccc(C(F)(F)F)nc3)cc(C(=O)N3CCCC3)c2)nc1 [Compound 123]
IC50 (hP2X2/3H): < 100 nM
IC50 (hP2X3): < 100 nM

Cc1ccc(-c2cc(C(=O)NCc3ccc(C)nc3)cc(C(=O)N3CCNCC3)c2)cc1 [Compound 124]
IC50 (hP2X2/3H): 100 to 500 nM
IC50 (hP2X3): < 100 nM

Cc1ccc(-c2cc(C(=O)NCc3ccc(C)nc3)cc(C(=O)N3CCN(C(C)C)CC3)c2)cc1 [Compound 125]
IC50 (hP2X2/3H): 100 to 500 nM
IC50 (hP2X3): < 100 nM

Cc1ccc(-c2cc(C(=O)NCc3ccc(C)nc3)cc(C(=O)N3CCNC(C)C3)c2)cc1 (stereo not drawn) [Compound 126]
IC50 (hP2X2/3H): 100 to 500 nM
IC50 (hP2X3): < 100 nM

Cc1ccc(-c2cc(C(=O)NCc3ccc(C)nc3)cc(C(=O)N3CCN(c4nccs4)CC3)c2)cc1 [Compound 127, 4′-Methyl-N-((6-methylpyridin-3-yl)methyl)-5-(4-(thiazol-2-yl)piperazine-1-carbonyl)biphenyl-3-carboxamide]
IC50 (hP2X2/3H): 100 to 500 nM
IC50 (hP2X3): < 100 nM

Cc1ccc(-c2cc(C(=O)NCc3ccc(C)nc3)cc(C(=O)N3CCN4CCCC4C3)c2)cc1 (stereo not drawn) [Compound 128]
IC50 (hP2X2/3H): < 100 nM
IC50 (hP2X3): < 100 nM

Cc1ccc(-c2cc(C(=O)NCc3ncc(C(F)(F)F)cc3Cl)cc(C(=O)N3CC(O)C3)c2)cc1 [Compound 129]
IC50 (hP2X2/3H): < 100 nM
IC50 (hP2X3): < 100 nM

Cc1ccc(-c2cc(C(=O)NCc3ccc(C(F)(F)F)nc3)cc(C(=O)N3CC(O)C3)c2)cc1 [Compound 130, 5-(3-Hydroxyazetidine-1-carbonyl)-4′-methyl-N-((6-(trifluoromethyl)pyridin-3-yl)methyl)biphenyl-3-carboxamide]
IC50 (hP2X2/3H): < 100 nM
IC50 (hP2X3): < 100 nM

Cc1ccc(-c2cc(C(=O)NCc3ccc(Cl)nc3)cc(C(=O)N3CC(O)C3)c2)cc1 [Compound 131]
IC50 (hP2X2/3H): < 100 nM
IC50 (hP2X3): < 100 nM

Cc1ccc(-c2cc(C(=O)NCc3ccc(C)nc3)cc(C(=O)N3CC(O)C3)c2)cc1 [Compound 132]
IC50 (hP2X2/3H): < 100 nM
IC50 (hP2X3): < 100 nM

COc1ncc(CNC(=O)c2cc(C(=O)N3CC(O)C3)cc(-c3ccc(C)cc3)c2)cn1 [Compound 133]
IC50 (hP2X2/3H): 100 to 500 nM
IC50 (hP2X3): < 100 nM

Cc1ccc(-c2cc(C(=O)NCc3ncc(Cl)cc3Cl)cc(C(=O)N3CC(O)C3)c2)cc1 [Compound 134]
IC50 (hP2X2/3H): < 100 nM
IC50 (hP2X3): < 100 nM

Cc1ccc(-c2cc(C(=O)N[C@H](C)c3ccc(C(F)(F)F)nc3)cc(C(=O)N3CCCC3)c2)nc1 [Compound 135]
IC50 (hP2X2/3H): < 100 nM
IC50 (hP2X3): < 100 nM

Cc1ccc(CNC(=O)c2cc(-c3ccc(Cl)c(F)c3)cc(S(C)(=O)=O)c2)cn1 [Compound 136]
IC50 (hP2X2/3H): > 1000 nM
IC50 (hP2X3): 501 to 1000 nM
